“And” between values parts separate entries of the source, which are not always exact repeats. Equal values may be shown once. Inconclusive results and toxic doses are left out. Peptide text beside a SMILES is read from it.
Tested on: P388 leukemia ip, CD2F1 mice, survival T/C
Assay: NCI In Vivo Anticancer Drug Screen. Data for tumor model P388 Leukemia (intraperitoneal) in CD2F1 (CDF1) mice
Conditions: endpoint: median survival time, higher = longer survival
Summary of the method: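 Mice carrying the transplanted tumor received test compound or vehicle. Survival was recorded in each group, and the value is the treated-group measurement divided by that of the vehicle-treated control group.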

[1] = dose: 50.0 mg/kg/injection, schedule: Q01DX005 (ip), vehicle: saline
[2] = dose: 100.0 mg/kg/injection, schedule: Q01DX005 (ip), vehicle: saline
[3] = dose: 50.0 mg/kg/injection, schedule: Q01DX009 (ip), vehicle: saline with Tween-80
[4] = dose: 100.0 mg/kg/injection, schedule: Q01DX009 (ip), vehicle: saline with Tween-80
[5] = dose: 200.0 mg/kg/injection, schedule: Q01DX009 (ip), vehicle: saline with Tween-80
[6] = dose: 50.0 mg/kg/injection, schedule: Q01DX005 (ip), vehicle: saline with Tween-80
[7] = dose: 100.0 mg/kg/injection, schedule: Q01DX005 (ip), vehicle: saline with Tween-80
[8] = dose: 200.0 mg/kg/injection, schedule: Q01DX005 (ip), vehicle: saline with Tween-80
[9] = dose: 60.0 mg/kg/injection, schedule: Q01DX005 (ip), vehicle: saline with Tween-80
[10] = dose: 120.0 mg/kg/injection, schedule: Q01DX005 (ip), vehicle: saline with Tween-80
[11] = dose: 240.0 mg/kg/injection, schedule: Q01DX005 (ip), vehicle: saline with Tween-80

## CN(C)CCNc1ccc(NCCN(C)C)c2c1C(=O)c1ccccc1C2=O
dose: 2.5 mg/kg/injection, schedule: Q01DX009 (ip), vehicle: distilled water + Tween-80
  T/C: 117 % of control
dose: 5.0 mg/kg/injection, schedule: Q01DX009 (ip), vehicle: distilled water + Tween-80
  T/C: 124 % of control
dose: 20.0 mg/kg/injection, schedule: Q01DX009 (ip), vehicle: acid diluted with saline
  T/C: 163 % of control
dose: 20.0 mg/kg/injection, schedule: Q01DX009 (ip), vehicle: distilled water + Tween-80
  T/C: 159 % of control
dose: 40.0 mg/kg/injection, schedule: Q01DX009 (ip), vehicle: acid diluted with saline
  T/C: 202 % of control
dose: 40.0 mg/kg/injection, schedule: Q01DX009 (ip), vehicle: distilled water + Tween-80
  T/C: 162 % of control

## CN(C)CCCN=C(N)CSP(=O)(O)O
dose: 60.0 mg/kg/injection, schedule: Q01DX005 (ip), vehicle: saline
  T/C: 98 % of control
dose: 120.0 mg/kg/injection, schedule: Q01DX005 (ip), vehicle: saline
  T/C: 104 % of control

## CCC1CCCC[N+]1(C)[B-](F)(F)F (configuration not stated)
[1]
  T/C: 105 % of control
[2]
  T/C: 107 % of control

## C/C=C(/C)c1cccc(OCc2ccccc2)c1OCc1ccccc1
[3]
  T/C: 95 % of control
[4]
  T/C: 90 % of control
[5]
  T/C: 106 % of control

## COc1cc2c(oc(=O)c3cc(C)cc(OC)c32)c2c(C3OC(C)C(O)C(C)(O)C3O)ccc(O)c12 (configuration not stated)
dose: 1.56 mg/kg/injection, schedule: Q01DX005 (ip), vehicle: DMSO
  T/C: 101 % of control
dose: 3.12 mg/kg/injection, schedule: Q01DX005 (ip), vehicle: DMSO
  T/C: 105 % of control and 109 % of control
dose: 6.25 mg/kg/injection, schedule: Q01DX005 (ip), vehicle: DMSO
  T/C: 114 % of control
dose: 12.5 mg/kg/injection, schedule: Q01DX005 (ip), vehicle: DMSO
  T/C: 123 % of control

## CS/C(N)=N\NC(=O)COc1ccc(Cl)cc1
[6]
  T/C: 100 % of control
[7]
  T/C: 106 % of control
[8]
  T/C: 100 % of control

## O=C(CCl)N1c2ccccc2Sc2ccc3ccccc3c21
dose: 50.0 mg/kg/injection, schedule: Q01DX009 (ip), vehicle: saline
  T/C: 95 % of control
dose: 100.0 mg/kg/injection, schedule: Q01DX009 (ip), vehicle: saline
  T/C: 102 % of control
dose: 200.0 mg/kg/injection, schedule: Q01DX009 (ip), vehicle: saline
  T/C: 113 % of control

## COC(=O)c1sc(N2CCCC2)nc1N
[9]
  T/C: 102 % of control
[10]
  T/C: 99 % of control
[11]
  T/C: 97 % of control

## c1csc(NC(Nc2nccs2)C23CC4CC(CC(C4)C2)C3)n1
[3]
  T/C: 96 % of control
[4]
  T/C: 101 % of control
[5]
  T/C: 100 % of control

## CCN(CC)CCCNc1nccc2c(OC)cccc12
dose: 25.0 mg/kg/injection, schedule: Q01DX005 (ip), vehicle: saline
  T/C: 93 % of control
[1]
  T/C: 89 % of control

## CC(O)C(N)C(=O)NC(C(=O)NC(C(=O)O)C(C)O)C(C)O (stereo not drawn) (H-Thr-Thr-Thr-OH; configuration not given here)
[1]
  T/C: 104 % of control
[2]
  T/C: 92 % of control
dose: 200.0 mg/kg/injection, schedule: Q01DX005 (ip), vehicle: saline
  T/C: 104 % of control

## Cc1nn(C)c2ccc3ccccc3c(=O)c12
dose: 60.0 mg/kg/injection, schedule: Q01DX005 (ip), vehicle: Klucel (hydroxypropylcellulose) (HPC)
  T/C: 101 % of control
dose: 120.0 mg/kg/injection, schedule: Q01DX005 (ip), vehicle: Klucel (hydroxypropylcellulose) (HPC)
  T/C: 102 % of control
dose: 240.0 mg/kg/injection, schedule: Q01DX005 (ip), vehicle: Klucel (hydroxypropylcellulose) (HPC)
  T/C: 105 % of control

## CC1C(c2ccccc2)=Nn2c(=O)n(-c3ccccc3)c(=O)n21 (configuration not stated)
dose: 25.0 mg/kg/injection, schedule: Q01DX009 (ip), vehicle: other
  T/C: 90 % of control
dose: 50.0 mg/kg/injection, schedule: Q01DX009 (ip), vehicle: other
  T/C: 91 % of control
dose: 100.0 mg/kg/injection, schedule: Q01DX009 (ip), vehicle: other
  T/C: 91 % of control
dose: 200.0 mg/kg/injection, schedule: Q01DX009 (ip), vehicle: other
  T/C: 89 % of control
dose: 400.0 mg/kg/injection, schedule: Q01DX009 (ip), vehicle: other
  T/C: 86 % of control

## COC(=O)/C=C/N(Cc1ccccc1)/N=N/N(/C=C/C(=O)OC)Cc1ccccc1
dose: 6.25 mg/kg/injection, schedule: Q01DX005 (ip), vehicle: saline with Tween-80
  T/C: 101 % of control
dose: 12.5 mg/kg/injection, schedule: Q01DX005 (ip), vehicle: saline with Tween-80
  T/C: 95 % of control
dose: 25.0 mg/kg/injection, schedule: Q01DX005 (ip), vehicle: saline with Tween-80
  T/C: 97 % of control
[8]
  T/C: 87 % of control

## SC1CCCN(Cc2ccccc2)C1 (configuration not stated)
[6]
  T/C: 117 % of control
[7]
  T/C: 108 % of control
[8]
  T/C: 110 % of control

## CC(C)=O
dose: 2.0 % in 0.5 ml injection vol, schedule: Q01DX009 (ip), vehicle: water
  T/C: 97 % of control
dose: 4.0 % in 0.5 ml injection vol, schedule: Q01DX009 (ip), vehicle: water
  T/C: 100 % of control and 101 % of control
dose: 8.0 % in 0.5 ml injection vol, schedule: Q01DX009 (ip), vehicle: water
  T/C: 102 % of control and 106 % of control
dose: 16.0 % in 0.5 ml injection vol, schedule: Q01DX009 (ip), vehicle: water
  T/C: 105 % of control

## COC(=O)/C=C(/C(=O)OC)N(C)Cc1ccccc1
dose: 25.0 mg/kg/injection, schedule: Q01DX009 (ip), vehicle: Klucel (hydroxypropylcellulose) (HPC)
  T/C: 97 % of control
dose: 50.0 mg/kg/injection, schedule: Q01DX009 (ip), vehicle: Klucel (hydroxypropylcellulose) (HPC)
  T/C: 104 % of control
dose: 100.0 mg/kg/injection, schedule: Q01DX009 (ip), vehicle: Klucel (hydroxypropylcellulose) (HPC)
  T/C: 98 % of control
dose: 100.0 mg/kg/injection, schedule: Q04DX003 (ip), vehicle: saline with Tween-80
  T/C: 99 % of control
dose: 200.0 mg/kg/injection, schedule: Q01DX009 (ip), vehicle: Klucel (hydroxypropylcellulose) (HPC)
  T/C: 101 % of control
dose: 200.0 mg/kg/injection, schedule: Q04DX003 (ip), vehicle: saline with Tween-80
  T/C: 99 % of control
dose: 400.0 mg/kg/injection, schedule: Q04DX003 (ip), vehicle: saline with Tween-80
  T/C: 101 % of control

## CCCCOC(=O)NC(=O)c1cc2ccc(N(CC)CC)cc2oc1=O
[9]
  T/C: 95 % of control
[10]
  T/C: 87 % of control
[11]
  T/C: 87 % of control

## Cn1cc(/C=C/[N+](=O)[O-])c2ccccc21
dose: 100.0 mg/kg/injection, schedule: Q04DX003 (ip), vehicle: Klucel (hydroxypropylcellulose) (HPC)
  T/C: 105 % of control
dose: 200.0 mg/kg/injection, schedule: Q04DX003 (ip), vehicle: Klucel (hydroxypropylcellulose) (HPC)
  T/C: 99 % of control
dose: 400.0 mg/kg/injection, schedule: Q04DX003 (ip), vehicle: Klucel (hydroxypropylcellulose) (HPC)
  T/C: 100 % of control

## O=C1C=CC(O)C1(O)CO (configuration not stated)
dose: 2.5 mg/kg/injection, schedule: Q01DX009 (ip), vehicle: saline + alcohol
  T/C: 98 % of control
dose: 5.0 mg/kg/injection, schedule: Q01DX009 (ip), vehicle: saline + alcohol
  T/C: 100 % of control
dose: 10.0 mg/kg/injection, schedule: Q01DX009 (ip), vehicle: saline + alcohol
  T/C: 105 % of control
dose: 20.0 mg/kg/injection, schedule: Q01DX009 (ip), vehicle: saline + alcohol
  T/C: 101 % of control

## CC1=NOCC(=O)N1
dose: 50.0 mg/kg/injection, schedule: Q01DX005 (ip), vehicle: distilled water + alcohol
  T/C: 106 % of control
dose: 100.0 mg/kg/injection, schedule: Q01DX005 (ip), vehicle: distilled water + alcohol
  T/C: 102 % of control
dose: 200.0 mg/kg/injection, schedule: Q01DX005 (ip), vehicle: distilled water + alcohol
  T/C: 105 % of control

## CC(C)=CCC/C(C)=C/CC1=C(O)c2ccccc2C(=O)C1=O
dose: 1.56 mg/kg/injection, schedule: Q01DX009 (ip), vehicle: saline
  T/C: 98 % of control
dose: 3.12 mg/kg/injection, schedule: Q01DX009 (ip), vehicle: saline
  T/C: 100 % of control
dose: 6.25 mg/kg/injection, schedule: Q01DX009 (ip), vehicle: saline
  T/C: 100 % of control
dose: 12.5 mg/kg/injection, schedule: Q01DX009 (ip), vehicle: saline
  T/C: 104 % of control and 94 % of control
